The values that follow come from ChEMBL document CHEMBL1201862, “PubChem BioAssay data set” (2004).

Active and inactive are the calls of the source.

Assay [1] concerns the target Cyclin-dependent kinase 5/CDK5 activator 1 (Homo sapiens, UniProt Q00535). The experiment in a line: CDK5-p25 kinase inhibitors, specificity check, dose response, selectivity assay for GSK-3 alpha inhibitor project, biochemical, microfluidic mobility shift, dry powder (AID 588430).
Assay [2] has as its target Glycogen synthase kinase-3 beta (Homo sapiens, UniProt P49841). Put plainly: Inhibition of Human GSK-3 beta Activity Measured in Biochemical System Using Microfluidics - 2063-05_Inhibitor_Dose_DryPowder_Activity_Set2. [Related pubchem assays (depositor defined):AID2709].
Assay [3] deals with Glycogen synthase kinase-3 alpha (Homo sapiens, UniProt P49840). Put plainly: Inhibition of Human GSK-3 alpha Activity Measured in Biochemical System Using Microfluidics - 2063-06_Inhibitor_Dose_DryPowder_Activity_Set2. [Related pubchem assays (depositor defined):AID2709].
A further assay has as its target T1, Caspase-3 (Homo sapiens, UniProt P42574).
T1 sequence (P42574 whole entry): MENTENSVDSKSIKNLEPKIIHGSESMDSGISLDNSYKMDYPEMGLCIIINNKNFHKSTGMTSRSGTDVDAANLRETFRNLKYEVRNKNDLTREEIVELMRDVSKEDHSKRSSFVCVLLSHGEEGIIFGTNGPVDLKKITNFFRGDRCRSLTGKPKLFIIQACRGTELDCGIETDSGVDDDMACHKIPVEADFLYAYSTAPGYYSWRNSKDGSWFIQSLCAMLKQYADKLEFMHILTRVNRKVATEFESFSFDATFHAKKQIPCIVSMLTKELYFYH
The experiment in a line: SAR Analysis of small molecule inhibitors of Sentrin-specific proteases (SENPs) using a Caspase-3 Selectivity assay. [Related pubchem assays (depositor defined):AID2540, AID2599, AID434973, AID489001]. Format: functional.

In assay [4] the target is T2, Sentrin-specific protease 8 (Homo sapiens, UniProt Q96LD8).
T2 sequence (Q96LD8 whole entry): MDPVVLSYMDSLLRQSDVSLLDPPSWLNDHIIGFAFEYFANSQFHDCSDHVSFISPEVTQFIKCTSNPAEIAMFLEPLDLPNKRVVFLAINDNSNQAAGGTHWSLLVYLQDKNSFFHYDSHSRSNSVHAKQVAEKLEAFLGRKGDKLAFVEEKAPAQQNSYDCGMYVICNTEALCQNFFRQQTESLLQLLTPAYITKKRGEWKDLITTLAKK
Put plainly: SENP8 protease inhibitors, SAR follow-up, biochemical, luminescence (AID 504501). Format: functional.

Assay [5] addresses T3, Sentrin-specific protease 6 (Homo sapiens, UniProt Q9GZR1).
T3 sequence (Q9GZR1 whole entry): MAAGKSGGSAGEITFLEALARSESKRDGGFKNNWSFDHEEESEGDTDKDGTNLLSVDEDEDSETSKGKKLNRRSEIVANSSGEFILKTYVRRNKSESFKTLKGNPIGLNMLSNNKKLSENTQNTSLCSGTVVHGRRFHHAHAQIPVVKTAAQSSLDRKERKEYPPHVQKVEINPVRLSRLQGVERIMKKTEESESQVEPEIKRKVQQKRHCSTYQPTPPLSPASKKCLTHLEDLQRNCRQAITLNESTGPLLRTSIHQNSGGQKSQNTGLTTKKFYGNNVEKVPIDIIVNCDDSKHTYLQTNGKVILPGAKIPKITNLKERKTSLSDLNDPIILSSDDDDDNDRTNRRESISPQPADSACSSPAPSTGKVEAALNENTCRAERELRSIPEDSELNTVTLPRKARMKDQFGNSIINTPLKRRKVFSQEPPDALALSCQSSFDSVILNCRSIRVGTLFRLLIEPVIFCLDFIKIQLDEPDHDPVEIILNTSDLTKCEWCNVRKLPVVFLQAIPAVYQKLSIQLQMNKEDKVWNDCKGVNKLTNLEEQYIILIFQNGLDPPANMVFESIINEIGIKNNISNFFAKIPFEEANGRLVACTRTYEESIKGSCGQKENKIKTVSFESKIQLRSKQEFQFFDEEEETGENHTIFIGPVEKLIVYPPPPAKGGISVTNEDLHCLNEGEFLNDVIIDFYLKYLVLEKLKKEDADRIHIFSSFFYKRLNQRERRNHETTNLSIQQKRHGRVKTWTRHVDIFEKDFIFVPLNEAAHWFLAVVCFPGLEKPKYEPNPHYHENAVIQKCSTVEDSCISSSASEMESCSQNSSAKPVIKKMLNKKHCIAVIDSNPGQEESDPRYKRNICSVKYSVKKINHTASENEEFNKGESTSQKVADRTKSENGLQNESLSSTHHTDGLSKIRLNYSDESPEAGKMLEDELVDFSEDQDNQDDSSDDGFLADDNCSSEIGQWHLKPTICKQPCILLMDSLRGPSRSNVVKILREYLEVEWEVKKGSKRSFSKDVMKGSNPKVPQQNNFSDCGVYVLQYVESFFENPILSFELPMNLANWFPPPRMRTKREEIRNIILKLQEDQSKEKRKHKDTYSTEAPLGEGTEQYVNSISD
Put plainly: SAR Analysis of small molecule inhibitors of Sentrin-specific protease 6 (SENP6) using a Luminescent assay. [Related pubchem assays (depositor defined):AID2582, AID2599]. The assay is classed as functional.

The target in assay [6] is T4, Sentrin-specific protease 7 (Homo sapiens, UniProt Q9BQF6).
T4 sequence (Q9BQF6 whole entry): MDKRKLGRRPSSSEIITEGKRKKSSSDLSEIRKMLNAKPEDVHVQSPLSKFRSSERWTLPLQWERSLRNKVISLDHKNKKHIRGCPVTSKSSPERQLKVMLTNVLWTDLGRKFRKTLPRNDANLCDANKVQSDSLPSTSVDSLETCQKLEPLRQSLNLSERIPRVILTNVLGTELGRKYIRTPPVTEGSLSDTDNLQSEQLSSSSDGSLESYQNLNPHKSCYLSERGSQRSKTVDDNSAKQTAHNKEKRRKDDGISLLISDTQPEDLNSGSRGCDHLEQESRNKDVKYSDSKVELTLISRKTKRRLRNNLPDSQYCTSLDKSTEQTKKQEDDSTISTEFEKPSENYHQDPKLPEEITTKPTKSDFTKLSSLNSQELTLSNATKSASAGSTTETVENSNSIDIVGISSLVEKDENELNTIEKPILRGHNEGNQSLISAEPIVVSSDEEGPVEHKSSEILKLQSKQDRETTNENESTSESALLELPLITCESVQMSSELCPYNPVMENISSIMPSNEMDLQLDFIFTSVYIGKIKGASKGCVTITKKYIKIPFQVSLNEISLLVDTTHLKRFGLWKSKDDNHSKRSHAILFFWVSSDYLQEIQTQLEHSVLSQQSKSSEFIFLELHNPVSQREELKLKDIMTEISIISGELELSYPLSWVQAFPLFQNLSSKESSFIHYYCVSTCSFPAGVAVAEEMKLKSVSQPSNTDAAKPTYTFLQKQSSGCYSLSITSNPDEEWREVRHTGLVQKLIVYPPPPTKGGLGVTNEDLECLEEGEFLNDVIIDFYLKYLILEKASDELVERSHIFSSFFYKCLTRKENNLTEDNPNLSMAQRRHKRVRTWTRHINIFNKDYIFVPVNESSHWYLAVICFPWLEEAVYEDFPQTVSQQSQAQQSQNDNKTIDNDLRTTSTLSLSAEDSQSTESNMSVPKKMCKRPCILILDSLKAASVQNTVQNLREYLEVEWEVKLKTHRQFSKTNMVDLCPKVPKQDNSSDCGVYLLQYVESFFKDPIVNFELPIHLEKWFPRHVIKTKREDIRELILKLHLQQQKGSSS
Put plainly: SENP7 protease inhibitors, SAR follow-up, biochemical, luminescence (AID 504497). Format: functional.

Assay [7] can be described thus: A Cell Based Secondary Assay to Explore Cytotoxicity in THP-1 Cells of Compounds that Modulate Mycobacterium tuberculosis in Media Containing Glycerol versus Media without Glycerol (2). The assay is classed as functional.
A short description of assay [8]: Vero cell cytotoxicity, dose response, cytotoxicity control for M. tuberculosis growth inhibitor project, Vero cells, purified and synthesized compounds, set 4 (AID 504854). Format: functional. To be noted: Mycobacterium tuberculosis.
Assay [9] can be described thus: Vero cell cytotoxicity, dose response, cytotoxicity control for M. tuberculosis growth inhibitor project, Vero cells, purified and synthesized compounds, set 5 (AID 504909). The assay is classed as functional. The settings on record: Mycobacterium tuberculosis.
A short description of assay [10]: THP-1 cell cytotoxicity, cytotoxicity control, set 4 (AID 504911). The settings on record: Mycobacterium tuberculosis. Format: functional.
Assay [11] in a line: Vero cell cytotoxicity, cytotoxicity control for M. tuberculosis inhibitor project, purified and synthesized samples, set 3 (AID 504684). The assay is classed as functional. To be noted: […].
The nature of assay [12]: THP-1 cell cytotoxicity, dose response, cytotoxicity control, set 3 (AID 504852). The assay is classed as functional. The settings on record: Mycobacterium tuberculosis.
In assay [13] the target is Cyclin-dependent kinase 8 (Homo sapiens, UniProt P49336). The experiment in a line: Navigating the Kinome. Panel member name: CDK8. Format: functional.
The next assay has as its target Cytochrome P450 2C9 (Homo sapiens, UniProt P11712).
Assay [14] concerns the target Cyclin-dependent kinase 9 (Homo sapiens, UniProt P50750). Format: functional.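 Also: value from the CDK9 entry of a kinome-spanning kinase panel.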

Cyclin-dependent kinase 5/CDK5 activator 1, sequence (Q00535 whole entry): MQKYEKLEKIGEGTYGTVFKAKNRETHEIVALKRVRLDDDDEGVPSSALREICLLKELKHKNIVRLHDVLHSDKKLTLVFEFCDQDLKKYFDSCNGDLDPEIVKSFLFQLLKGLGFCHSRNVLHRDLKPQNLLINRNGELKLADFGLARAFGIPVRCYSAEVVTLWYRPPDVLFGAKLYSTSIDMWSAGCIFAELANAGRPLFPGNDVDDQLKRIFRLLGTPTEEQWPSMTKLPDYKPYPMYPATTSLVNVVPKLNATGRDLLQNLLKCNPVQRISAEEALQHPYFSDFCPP
Cyclin-dependent kinase 5/CDK5 activator 1, sequence (Q15078 whole entry, further chain): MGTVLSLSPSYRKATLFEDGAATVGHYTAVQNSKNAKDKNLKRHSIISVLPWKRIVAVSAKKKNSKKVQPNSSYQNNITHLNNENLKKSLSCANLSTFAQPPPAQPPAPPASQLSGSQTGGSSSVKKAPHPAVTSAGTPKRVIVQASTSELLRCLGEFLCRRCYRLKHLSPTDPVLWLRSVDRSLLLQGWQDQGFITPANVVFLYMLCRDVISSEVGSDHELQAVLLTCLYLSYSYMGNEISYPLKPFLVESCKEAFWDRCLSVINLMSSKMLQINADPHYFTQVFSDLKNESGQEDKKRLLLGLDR
Cyclin-dependent kinase 9, sequence (P50750 whole entry): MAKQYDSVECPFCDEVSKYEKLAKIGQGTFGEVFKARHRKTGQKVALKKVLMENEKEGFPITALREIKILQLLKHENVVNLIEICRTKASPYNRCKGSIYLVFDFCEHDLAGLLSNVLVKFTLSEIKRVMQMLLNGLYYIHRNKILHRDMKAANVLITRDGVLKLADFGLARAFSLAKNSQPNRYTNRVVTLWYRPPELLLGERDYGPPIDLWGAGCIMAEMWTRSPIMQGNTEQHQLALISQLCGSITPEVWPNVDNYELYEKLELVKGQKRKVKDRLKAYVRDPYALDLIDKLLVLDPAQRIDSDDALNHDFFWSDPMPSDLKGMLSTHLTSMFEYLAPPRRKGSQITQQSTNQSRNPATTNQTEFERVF
Cyclin-dependent kinase 8, sequence (P49336 whole entry): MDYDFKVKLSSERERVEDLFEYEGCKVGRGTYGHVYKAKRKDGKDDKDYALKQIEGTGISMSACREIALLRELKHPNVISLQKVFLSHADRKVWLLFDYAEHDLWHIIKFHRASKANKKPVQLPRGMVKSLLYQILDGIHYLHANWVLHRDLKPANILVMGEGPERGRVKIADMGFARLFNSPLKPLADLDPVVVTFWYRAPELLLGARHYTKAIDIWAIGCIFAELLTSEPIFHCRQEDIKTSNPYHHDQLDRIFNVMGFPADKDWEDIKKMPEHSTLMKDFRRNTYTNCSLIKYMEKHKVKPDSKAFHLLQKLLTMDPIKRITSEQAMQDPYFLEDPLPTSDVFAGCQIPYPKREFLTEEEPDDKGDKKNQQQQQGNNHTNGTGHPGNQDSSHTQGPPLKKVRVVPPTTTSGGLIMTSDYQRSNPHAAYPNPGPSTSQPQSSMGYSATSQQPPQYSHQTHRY
Glycogen synthase kinase-3 alpha, sequence (P49840 whole entry): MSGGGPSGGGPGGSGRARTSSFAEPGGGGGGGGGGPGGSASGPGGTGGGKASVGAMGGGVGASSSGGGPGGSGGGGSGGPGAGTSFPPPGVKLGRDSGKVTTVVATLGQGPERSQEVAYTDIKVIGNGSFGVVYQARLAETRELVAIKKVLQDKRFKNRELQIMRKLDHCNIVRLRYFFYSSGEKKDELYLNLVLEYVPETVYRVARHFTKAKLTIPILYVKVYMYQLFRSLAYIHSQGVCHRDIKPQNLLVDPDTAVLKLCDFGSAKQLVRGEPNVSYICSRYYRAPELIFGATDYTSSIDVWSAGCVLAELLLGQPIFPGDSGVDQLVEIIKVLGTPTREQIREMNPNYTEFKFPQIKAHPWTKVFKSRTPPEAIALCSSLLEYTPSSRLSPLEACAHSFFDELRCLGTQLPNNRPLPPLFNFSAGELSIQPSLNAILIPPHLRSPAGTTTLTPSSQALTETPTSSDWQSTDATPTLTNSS
Glycogen synthase kinase-3 beta, sequence (P49841 whole entry): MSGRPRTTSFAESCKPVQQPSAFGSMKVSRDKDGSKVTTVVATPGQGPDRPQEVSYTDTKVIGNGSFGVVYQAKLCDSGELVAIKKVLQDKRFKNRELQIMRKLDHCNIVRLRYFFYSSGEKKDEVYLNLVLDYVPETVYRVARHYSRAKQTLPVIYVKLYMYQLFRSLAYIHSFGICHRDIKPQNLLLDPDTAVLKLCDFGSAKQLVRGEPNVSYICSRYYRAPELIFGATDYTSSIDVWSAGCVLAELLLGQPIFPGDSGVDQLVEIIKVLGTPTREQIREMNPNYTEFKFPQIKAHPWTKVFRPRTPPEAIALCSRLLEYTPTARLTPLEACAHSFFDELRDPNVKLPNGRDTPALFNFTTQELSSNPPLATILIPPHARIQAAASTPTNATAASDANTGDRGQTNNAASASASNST
Cytochrome P450 2C9, sequence (P11712 whole entry): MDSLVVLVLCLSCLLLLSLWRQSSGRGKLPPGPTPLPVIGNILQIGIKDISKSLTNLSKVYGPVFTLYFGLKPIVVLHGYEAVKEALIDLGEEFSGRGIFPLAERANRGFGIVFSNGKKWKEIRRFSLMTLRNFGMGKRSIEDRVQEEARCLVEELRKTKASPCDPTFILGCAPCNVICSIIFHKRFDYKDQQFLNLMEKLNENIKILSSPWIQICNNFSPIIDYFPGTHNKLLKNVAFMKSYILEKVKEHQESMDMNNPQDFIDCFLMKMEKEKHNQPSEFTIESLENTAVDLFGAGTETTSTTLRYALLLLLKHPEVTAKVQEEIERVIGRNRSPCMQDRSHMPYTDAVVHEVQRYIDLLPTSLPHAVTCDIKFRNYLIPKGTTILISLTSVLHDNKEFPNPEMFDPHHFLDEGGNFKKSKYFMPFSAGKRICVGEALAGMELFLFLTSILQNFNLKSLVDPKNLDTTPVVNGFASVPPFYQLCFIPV

`CCOc1ccccc1/C=N/NC(=O)c1nnn(-c2nonc2N)c1CN1CCC(C)CC1`: the half-maximal activity concentration (AC50) is 65 µM (active) in [1], < 0.016 µM (active) in [2] and 0.0392 µM (active) in assay [3].
For `Cc1ccc(NC(=O)c2ccc(OC3CSC3)cc2)cc1`, the IC50 (at Caspase-3; in assay [4]; in assay [5]; in [6]) was > 99 µM (inactive) in each case.
Take `CN(C(=O)CSc1nc2ccccc2c(=O)[nH]1)C1CCCCC1`: the 50% cytotoxic concentration (CC50) in assay [7] is > 100 µM (active); in [8] it was > 100 µM (active); in assay [9], > 100 µM (active); in [10], > 97.4 µM (active); in [11], > 100 µM (active); in assay [12] it was > 100 µM (active).
Turning to `COc1ccc(-c2cc(=O)c3c(O)cc(O)cc3o2)cc1` [ACACETIN], the inhibition constant (Ki) in assay [13] is 0.631 µM (active); in [14], 1.26 µM (active). Moreover, at Cytochrome P450 2C9, the concentration at half-maximal activity (AC50) is 1.26 µM (inconclusive).

As usually defined, the AC50 is the midpoint of the concentration-response curve, whichever way the signal moves. One may read the IC50 as the concentration at which inhibition is half-maximal. Broadly, the CC50 is the concentration at which the toxic effect on the cells reaches its halfway point. In general, Ki refers to the dissociation constant of the complex between target and ligand, obtained from inhibition or displacement.
